According to patent publication US11744877B2, “Method for permeabilizing tumor vasculature using a tumor vasculature permeabilizing molecule to improve access of a therapeutic or diagnostic agent to a tumor” (OXFORD UNIVERSITY INNOVATION LIMITED, priority 2010, dated 2023):

Assay: Accumulation of intravascularly injected oncolytic adenovirus in EL4 tumours (hexon staining, qPCR of viral DNA)
Type: in vivo, SCID-beige female mice
Conditions: 1 μg TNF; tumours 100 mm^3; versus vehicle; FIG. 1B
Protocol: All adenoviruses were grown in 293 cells, and purified by double banding in CsCl gradients with Benzonase treatment after the first banding. Viral particle (VP) number was determined by measuring DNA content, using a PicoGreen assay (Invitrogen, Carlsbad, Calif.) (Murakami and McCaman, 1999, Anal Biochem; 274(2):283-8).
EL4 cells (2×10^6) were injected subcutaneously and allowed to form tumours in the left flank of 4- to 6-week-old SCID-beige female mice. Evans Blue was administered intravenously to compare permeability in 1 μg TNFα-treated animals versus controls. Oncolytic adenovirus was injected intravascularly when tumours were 100 mm^3 and relative distribution was assessed by hexon staining and quantitative polymerase chain reaction measurement of viral DNA.
To assess distribution of adenovirus in 1 μg TNF-treated animals versus controls, oncolytic adenovirus was injected intravascularly when tumours were 100 mm^3 and the relative distribution was assessed by hexon staining and quantitative polymerase chain reaction measurement of viral DNA. Three controls were also used.
Virus accumulation in the tumour was compared to that in the liver and in the spleen.

Molecule	increase in accumulation (uptake) of intravenously administered adenovirus particles in tumours
COc1cc(/C=C\c2ccc(OC)c(OP(=O)(O)O)c2OP(=O)(O)O)cc(OC)c1OC [combrestatin (OXI4503), combrestatin]	increases were small compared to TNF
Angiotensin II (DRVYIHPF; Angiotensin-2; UniProt P01019 25-32, looked up) [control reported to increase tumour vessel permeability]	increases were small compared to TNF
